Assay results from patent US8080522B2, “Polyethlene glycol modifications of thymosin alpha-1” (Institute of Pharmacology and Toxicology Academy of …, priority 2005, dated 2011).

Key:
spleen cell = assay: Interferon-γ production of spleen cells stimulated by Con A (double antibody sandwich ELISA); assay type: cell-based; conditions: for Concentration of IFN-γ: Con A 0.5 μg/mL, 24 hours, n = 3; for Enhancement percentage: versus Con A alone
Protocol: Prepare spleen cell suspension in sterile condition. Adjust cell concentration to 5×10^6 cell/mL by adding RPMI-1640 culture with 20% bovine serum. Add 0.5 mL cell suspension, 0.25 mL Con A (final concentration is 0.5 μg/mL) and 0.25 mL samples with different concentrations in 24-well plate; and add RPMI-1640 culture in control wells. Incubate the plates in a 5% CO2 chamber at 37° C. for 24 hours. Centrifuge and collect supernatant, test the content of IFN-γ in supernatant by double antibody sandwich ELISA. The protocol is according to the instruction on ELISA kit.

[1] = tested on: T lymphocyte (spleen cell); assay: T lymphocyte proliferation stimulated by Con A (3H-TdR incorporation); assay type: cell-based, mouse; conditions: for 3H-TdR incorporation (cpm, x ± SD): Con A 0.5 μg/mL, 72 hours, n = 4; for Enhancement percentage: versus Con A alone
Protocol: Sacrifice mouse by draining artery blood, remove spleen in sterile condition, and make it to spleen cell suspension. After red blood cell lysis, wash for 3 times, and stain with Trypan Blue to count the living cells. The amount of living cells should be more than 95%. Dilute the cell concentration to 5×10^6 cell/mL by adding RPMI-1640 culture with 10% bovine serum. Add spleen cell suspension to a sterilized 96-well plate for 100 μL per well. The total amount is 200 μL per well (including 50 μL Con A and 50 μL medicament). Each sample concentration is repeated fro 3-4 wells. Incubate the plate in a 5% CO2 chamber for 72 hours, add 10 μci/mL ^3H-TdR 20 μL per well 16 hours before termination of the incubation, giving rise to a final concentration of 1.0 μci (37.0 KBq)/mL. Collect cells on filter membrane by using Herveste 96 cell harvester, dried in 80° C. oven for 20 minutes or dried in air. Put the dried filter membrane into 1450-423 microBeta sample bag, add scintillation liquid, and measure radioactivity (cpm) in Perkin Elmer MicroBeta Trilux 1450 Scintillation Counter.

[2] = Plasma concentration / pharmacokinetics in mouse (competitive ELISA); assay type: in vivo; conditions: 300 μg per mouse, injected peritoneally, parameters in 24 h; for AUC: n = 3; for Cmax / Tmax: serum, ip, 300 ug/animal; for Cmax: n = 3, read-out: Cmax; for Tmax: n = 3, read-out: Tmax
Protocol: Coating antigen: Dilute Tα1 detection antigen stock solution to a final concentration of 2 μg/mL with coating solution, and add it into the wells of ELISA plate for 0.1 mL per well, and incubate at 4° C. for 5 days. Then wash the ELISA plate 3 times with washing buffer, each 0.2 mL/well and 3 min/time. Add 0.2 mL blocking buffer to each well, incubate for 1.5 hours at 37° C., wash plate 2 times by washing buffer, and spin dried.
Sample preparation: Weight sample accurately, dissolve it in saline to a concentration of 1.5 mg/mL. Administrate 0.2 Ml by injection to each mouse peritoneally. Collect blood sample in 3 min, 20 min, 40 min, 1 h, 2 h, 3 h, 6 h, 8 h, 12 h, and 24 h. Collect serum by centrifuge the blood samples for 5 minutes at 10000 rpm, stored at −20° C. in a freezer. o prepare test sample, […] was added by 0.1 mL 1:1500 rabbit anti-Tα1 serum (final concentration is 1:6000), and 0.2 mL CD-1® mouse serum, and […]. Prepare blank control at the same time. Total volume is 0.4 mL. Incubate for 2 hours at 37° C. To prepare standard sample, Tα1 0.1 mL with different concentrations from 0.0004 to 400 μg/mL was added by 0.1 mL 1:1500 rabbit anti-Tα1 serum (final concentration is 1:6000), and 0.2 mL CD-1® mouse serum. Prepare blank control at the same time. Total volume is 0.4 mL. Incubate for 2 hours at 37° C.
Sample Testing Add the prepared test sample and standard sample to ELISA plate, 0.1 mL/well, reacting for 1 hour in 37° C. chamber. Wash the plates 3 times, spin dryed. Add substrate 0.1 mL/well for 10 minutes. Add 2 mol/L H2SO4 0.05 mL to each well to terminate the reaction. Measure the OD value at 450 nm. Plot the standard curve with the concentration of Tα1 standard sample as abscissa and OD value as vertical coordinate. Calculate the content of test sample according to this standard curve.

[3] = Half-life in liver homogenate (HPLC); assay type: in vitro ADME; conditions: 37° C., sample 0.4 mg/mL or 0.8 mg/mL, read-out: t1/2 in liver homogenate (converted)
Protocol: Experimental method: Prepare 0.4 mg/mL or 0.8 mg/mL sample aqueous solution in centrifuge tube, adding 50 μL liver homogenate. Then incubate for different time in 37° C. water bath. Terminate the reaction and precipitate liver homogenate protein by heating the mixture in boiling water for 5 minutes. Centrifuge it (10000 rpm) for 10 minutes. Analyze the supernatant by HPLC. The data was statistically analyzed by Origin Prof. 5.0.
HPLC: Column temperature: 25° C.; Flow rate 1.0 mL/min; Detection wavelength: 200 nm; Mobile phase A: 0.1% TFA/H2O; Mobile phase B: 0.1% TFA/70% CH3CN.

| Substance | AUC [2] | Cmax [2] | Tmax [2] | half-life [3] | Concentration of IFN-γ (spleen cell; Table 1-2, sample 1 μg/mL) | Enhancement percentage (spleen cell; Table 1-2, sample 1 μg/mL) | Concentration of IFN-γ (spleen cell; Table 1-2, sample 10 μg/mL) | Enhancement percentage (spleen cell; Table 1-2, sample 10 μg/mL) | Concentration of IFN-γ (spleen cell; Table 1-2, sample 100 μg/mL) | Enhancement percentage (spleen cell; Table 1-2, sample 100 μg/mL) | 3H-TdR incorporation (cpm, x ± SD) ([1]; Table 2-2, sample 10 μg/mL) | Enhancement percentage ([1]; Table 2-2, sample 10 μg/mL) | 3H-TdR incorporation (cpm, x ± SD) ([1]; Table 2-2, sample 50 μg/mL) | Enhancement percentage ([1]; Table 2-2, sample 50 μg/mL) | 3H-TdR incorporation (cpm, x ± SD) ([1]; Table 2-2, sample 100 μg/mL) | Enhancement percentage ([1]; Table 2-2, sample 100 μg/mL) | 3H-TdR incorporation (cpm, x ± SD) ([1]; Table 2-1, sample 10 μg/mL) | Enhancement percentage ([1]; Table 2-1, sample 10 μg/mL) | 3H-TdR incorporation (cpm, x ± SD) ([1]; Table 2-1, sample 50 μg/mL) | Enhancement percentage ([1]; Table 2-1, sample 50 μg/mL) | also measured |
| --- | --- | --- | --- | --- | --- | --- | --- | --- | --- | --- | --- | --- | --- | --- | --- | --- | --- | --- | --- | --- | --- |
| Ac-SDAAVDTSSEITTKDCKEKKEVVEEAEN-OH [BMJBT004] | 8.76 µg·h/mL | 4940 ng/mL | 20 min | 48 min | 3671.1 ± 86.0 pg/mL | +12.7% | 3216.1 ± 228.6 pg/mL | −1.3% | 3565.9 ± 77.8 pg/mL | +0.5% | – | – | – | – | – | – | – | – | – | – | – |
| Ac-SDAAVDTSSEITTKDLCEKKEVVEEAEN-OH [BMJBT005] | 6.11 µg·h/mL | 3650 ng/mL | 20 min | 168 min | – | – | – | – | – | – | – | – | – | – | – | – | 22237 ± 5551 cpm | +64.9% | 22413 ± 1436 cpm | +66.2% | Concentration of IFN-γ (spleen cell; Table 1-1, sample 1 μg/mL): 1822.2 ± 24.3 pg/mL; Enhancement percentage (spleen cell; Table 1-1, sample 1 μg/mL): +142.4%; Concentration of IFN-γ (spleen cell; Table 1-1, sample 10 μg/mL): 1706.5 ± 139.3 pg/mL; Enhancement percentage (spleen cell; Table 1-1, sample 10 μg/mL): +127.0%; Concentration of IFN-γ (spleen cell; Table 1-1, sample 100 μg/mL): 906.9 ± 10.7 pg/mL; Enhancement percentage (spleen cell; Table 1-1, sample 100 μg/mL): +20.6%; 3H-TdR incorporation (cpm, x ± SD) ([1]; Table 2-1, sample 100 μg/mL): 17551 ± 2491 cpm; Enhancement percentage ([1]; Table 2-1, sample 100 μg/mL): +30.1% |
| Ac-SDAAVDTSSEITTKDLKEKKCVVEEAEN-OH [BMJBT006] | 12.8 µg·h/mL | 11500 ng/mL | 20 min | 156 min | – | – | – | – | – | – | – | – | – | – | – | – | 21152 ± 2936 cpm | +56.8% | 19880 ± 1777 cpm | +47.4% | 3H-TdR incorporation (cpm, x ± SD) ([1]; Table 2-1, sample 100 μg/mL): 14319 ± 2333 cpm; Enhancement percentage ([1]; Table 2-1, sample 100 μg/mL): +6.2% |
| Ac-SDAAVDTSSEITTKDLKEKKEVVEEAEN-OH [Tα1, reference compound] | 9.22 µg·h/mL | 10100 ng/mL | 20 min | 252 min | – | – | – | – | – | – | 18315 ± 2194 cpm | +57.3% | 17007 ± 1526 cpm | +46.1% | 14383 ± 3225 cpm | +23.5% | 17871 ± 4635 cpm | +32.5% | 17007 ± 1526 cpm | +26.1% | Concentration of IFN-γ (spleen cell; Table 1-1, sample 1 μg/mL): 1449.3 ± 334.3 pg/mL; Enhancement percentage (spleen cell; Table 1-1, sample 1 μg/mL): +92.8%; Concentration of IFN-γ (spleen cell; Table 1-1, sample 10 μg/mL): 1514.0 ± 102.1 pg/mL; Enhancement percentage (spleen cell; Table 1-1, sample 10 μg/mL): +101.4%; Concentration of IFN-γ (spleen cell; Table 1-1, sample 100 μg/mL): 1007.2 ± 31.3 pg/mL; Enhancement percentage (spleen cell; Table 1-1, sample 100 μg/mL): +34.0%; Concentration of IFN-γ (spleen cell; Table 1-3, sample 1 μg/mL): 3609.6 ± 167.8 pg/mL; Enhancement percentage (spleen cell; Table 1-3, sample 1 μg/mL): +18.2%; Concentration of IFN-γ (spleen cell; Table 1-3, sample 10 μg/mL): 3891.5 ± 106.1 pg/mL; Enhancement percentage (spleen cell; Table 1-3, sample 10 μg/mL): +27.4%; Concentration of IFN-γ (spleen cell; Table 1-3, sample 100 μg/mL): 4361.3 ± 87.8 pg/mL; Enhancement percentage (spleen cell; Table 1-3, sample 100 μg/mL): +42.8%; 3H-TdR incorporation (cpm, x ± SD) ([1]; Table 2-1, sample 100 μg/mL): 14624 ± 3253 cpm; Enhancement percentage ([1]; Table 2-1, sample 100 μg/mL): +6.6% |

More lines, main results first:

| AUC [2] | Cmax [2] | Tmax [2] | half-life [3] | Substance | Concentration of IFN-γ (spleen cell; Table 1-2, sample 1 μg/mL) | Enhancement percentage (spleen cell; Table 1-2, sample 1 μg/mL) | Concentration of IFN-γ (spleen cell; Table 1-2, sample 10 μg/mL) | Enhancement percentage (spleen cell; Table 1-2, sample 10 μg/mL) | Concentration of IFN-γ (spleen cell; Table 1-2, sample 100 μg/mL) | Enhancement percentage (spleen cell; Table 1-2, sample 100 μg/mL) | 3H-TdR incorporation (cpm, x ± SD) ([1]; Table 2-2, sample 10 μg/mL) | Enhancement percentage ([1]; Table 2-2, sample 10 μg/mL) | 3H-TdR incorporation (cpm, x ± SD) ([1]; Table 2-2, sample 50 μg/mL) | Enhancement percentage ([1]; Table 2-2, sample 50 μg/mL) | 3H-TdR incorporation (cpm, x ± SD) ([1]; Table 2-2, sample 100 μg/mL) | Enhancement percentage ([1]; Table 2-2, sample 100 μg/mL) | 3H-TdR incorporation (cpm, x ± SD) ([1]; Table 2-1, sample 10 μg/mL) | Enhancement percentage ([1]; Table 2-1, sample 10 μg/mL) | 3H-TdR incorporation (cpm, x ± SD) ([1]; Table 2-1, sample 50 μg/mL) | Enhancement percentage ([1]; Table 2-1, sample 50 μg/mL) | also measured |
| --- | --- | --- | --- | --- | --- | --- | --- | --- | --- | --- | --- | --- | --- | --- | --- | --- | --- | --- | --- | --- | --- |
| 3.09 µg·h/mL | 448 ng/mL | 20 min | 228 min | Ac-SDAACDTSSEITTKDLKEKKEVVEEAEN-OH [BMJBT001] | 3000.5 ± 56.1 pg/mL | −7.9% | 3584.2 ± 31.6 pg/mL | +10.0% | 3618.5 ± 93.8 pg/mL | +11.0% | 19289 ± 4456 cpm | +65.7% | 19972 ± 3287 cpm | +71.6% | 21119 ± 5339 cpm | +81.4% | – | – | – | – | – |
| 2.44 µg·h/mL | 1860 ng/mL | 20 min | 126 min | Ac-SDAAVDTCSEITTKDLKEKKEVVEEAEN-OH [BMJBT002] | – | – | – | – | – | – | 23881 ± 2809 cpm | +105.1% | 19611 ± 2612 cpm | +68.5% | 11956 ± 1555 cpm | +2.6% | – | – | – | – | – |
| 8.71 µg·h/mL | 5650 ng/mL | 20 min | 168 min | Ac-SDAAVDTSSECTTKDLKEKKEVVEEAEN-OH [BMJBT003] | 3428.6 ± 111.9 pg/mL | +5.2% | 3732.2 ± 30.2 pg/mL | +14.5% | 3990.8 ± 250.0 pg/mL | +22.5% | 21825 ± 2216 cpm | +87.5% | 20465 ± 2432 cpm | +77.3% | 15240 ± 2369 cpm | +30.9% | – | – | – | – | – |
